These results are taken from patent EP3057951B1, “METHYLENE LINKED QUINOLINYL MODULATORS OF ROR-GAMMA-T” (Janssen Pharmaceutica NV, priority 2013, dated 2015).

The target in assay [1] is T1, wild type human RORγt ligand binding domain (RORyt LBD) (Homo sapiens, UniProt P51449).
T1 construct: His-tag (N); TurboTEV protease cleavage site (ENLYFQG) (N); made in house; host or cells: E. coli (pHIS1, modified pET vector)
T1 sequence (P51449 258-518): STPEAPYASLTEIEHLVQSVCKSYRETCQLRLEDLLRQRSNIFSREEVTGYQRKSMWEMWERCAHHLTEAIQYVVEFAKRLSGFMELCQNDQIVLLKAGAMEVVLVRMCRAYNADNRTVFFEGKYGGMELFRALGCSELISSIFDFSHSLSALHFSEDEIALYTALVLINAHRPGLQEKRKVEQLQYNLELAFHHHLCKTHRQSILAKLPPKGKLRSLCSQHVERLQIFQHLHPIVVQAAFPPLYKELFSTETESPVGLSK
Put plainly: RORγt ThermoFluor assay (thermal shift, binding affinity KD). (In general: In DSF a fluorescence change marks the thermal transition of the protein.)

Assay [2] has as its target T2, wild type human RORγt LBD (Homo sapiens, UniProt P51449).
T2 construct: expressed in transfected cells; host or cells: HEK293T
T2 sequence (P51449 258-518): T1 sequence (P51449 258-518)
Put plainly: RORγt (LBD) Reporter Assay (GAL4-luciferase, HEK293T cells). In kind it is cell-based. Particulars: for inhibition at 6 µM: HEK-293T, read-out: RORγt (LBD) Reporter Assay, % inhibition @ 6 µM, 6 µM compound concentration; for RORγt (LBD) Reporter Assay, % inhibition @ 6 µM: 6 µM compound concentration. Background: A reporter such as luciferase makes a cellular process visible.

Where [3] appears, read: HEK293T cells, value after the comma with ∼, > or < could not be included in the average.

Molecules are shown by their SMILES. Where a name gives a salt, the structure may show the parent alone. Read-outs that look alike come from different tables or passages of the source.

As a reminder, the Kd is the constant that tells how readily two partners part at equilibrium. In general, IC50 refers to the concentration at which inhibition is half-maximal. Higher therefore signals a need for much substance. As for `COc1nc2ccc(C(O)(c3ccc(C)nc3C)C3CN(C(C)=O)C3)cc2c(Cl)c1Cc1ccc(C(F)(F)F)cc1` (single isomer, unassigned) [Example 87b, 1-(3-((4-Chloro-2-methoxy-3-(4-(trifluoromethyl)benzyl)quinolin-6-yl)(2,6-dimethylpyridin-3-yl)(hydroxy)methyl)azetidin-1-yl)ethanone], in assay [1], the dissociation constant (Kd) turned out to be 0.73 nM. This molecule had an IC50 in assay [2] (setting [3]) of 13 nM. Besides, the inhibition at 6 µM in assay [2] worked out at 100%.

Take `COc1nc2ccc(C(O)(c3cnnn3C)c3cnnn3C)cc2c(Cl)c1Cc1ccc(C(F)(F)F)cc1` [Example 12, (4-Chloro-2-methoxy-3-(4-(trifluoromethyl)benzyl)quinolin-6-yl)bis(1-methyl-1H-1,2,3-triazol-5-yl)methanol]: the Kd in assay [1] is 0.7 nM. This molecule yielded a 50% inhibitory concentration (IC50) in assay [2] (setting [3]) of 3.1 nM. The inhibition at 6 µM in assay [2] was determined as 99%.

Take `Cn1cncc1C(O)(c1ccc(Cl)cc1)c1ccc2nc(C(F)(F)F)c(Cc3ccccc3)c(C#N)c2c1` (stereo not drawn) [Example 103, 3-Benzyl-6-((4-chlorophenyl)(hydroxy)(1-methyl-1H-imidazol-5-yl)methyl)-2-(trifluoromethyl)quinoline-4-carbonitrile•TFA]: the Kd in assay [1] worked out at 9.4 nM. Further, the IC50 in assay [2] (setting [3]) came to 33 nM. Also, the inhibition at 6 µM in assay [2] stood at 81%.

For `COc1ccc(C(O)(c2cccnc2)c2ccc3nc(OC)c(Cc4ccc(-n5cccn5)cc4)c(Cl)c3c2)cc1OC` (single isomer, unassigned) [Example 159c, (3-(4-(1H-Pyrazol-1-yl)benzyl)-4-chloro-2-methoxyquinolin-6-yl)(3,4-dimethoxyphenyl)(pyridin-3-yl)methanol], the Kd in assay [1] worked out at 14 nM. Besides, in assay [2] (HEK293T cells), the “RORγt (LBD) Reporter Assay, % inhibition @ 6 µM” value (“RORγt … % inhibition @ 6 µM” for short) came to 105% and the IC50 was determined as 51 nM.

Take `COc1nc2ccc(C(O)(c3ccc(C)nc3C)c3cnnn3C)cc2c(Cl)c1Cc1ccc(-n2cncn2)cc1` (single isomer, unassigned) [Example 22c, (3-(4-(1H-1,2,4-Triazol-1-yl)benzyl)-4-chloro-2-methoxyquinolin-6-yl)(2,6-dimethylpyridin-3-yl)(1-methyl-1H-1,2,3-triazol-5-yl)methanol]: in assay [1], the dissociation constant (Kd) is 2 nM. The “RORγt … % inhibition @ 6 µM” value in assay [2] worked out at 98%. For the same molecule, the IC50 in assay [2] (setting [3]) is 11 nM.

As for `COc1nc2ccc(C(O)(c3cncn3C)C3CCOCC3)cc2c(Cl)c1Cc1ccc(-n2cccn2)cc1` (single isomer, unassigned) [Example 1c, (3-(4-(1H-Pyrazol-1-yl)benzyl)-4-chloro-2-methoxyquinolin-6-yl)(1-methyl-1H-imidazol-5-yl)(tetrahydro-2H-pyran-4-yl)methanol], the Kd in assay [1] worked out at 1.5 nM. The “RORγt … % inhibition @ 6 µM” value in assay [2] is reported as 98%. This molecule returned an IC50 in assay [2] (setting [3]) of 22 nM.

In the case of `Cn1cncc1C(O)(c1ccc(C(F)(F)F)nc1)c1ccc2nc(C(F)(F)F)c(Cc3ccccc3)c(O)c2c1` (stereo not drawn) [Example 107, 3-Benzyl-6-(hydroxy(1-methyl-1H-imidazol-5-yl)(6-(trifluoromethyl)pyridin-3-yl)methyl)-2-(trifluoromethyl)quinolin-4-ol•TFA], the Kd in assay [1] was 3400 nM. Further, the IC50 in assay [2] (setting [3]) amounted to 5600 nM. Further, in assay [2], the inhibition at 6 µM amounted to 57%.

On to `COc1nc2ccc(C(O)(c3ccc(C)nc3C)c3cnc(C)n3C)cc2c(Cl)c1Cc1ccc(C(F)(F)F)cc1` (racemic) [Example 57a, (4-Chloro-2-methoxy-3-(4-(trifluoromethyl)benzyl)quinolin-6-yl)(1,2-dimethyl-1H-imidazol-5-yl)(2,6-dimethylpyridin-3-yl)methanol], for which the Kd in assay [1] worked out at 0.03 nM. This molecule showed an IC50 in assay [2] (setting [3]) of 22 nM. The inhibition at 6 µM in assay [2] came out at 100%.

On to `COc1nc2ccc(C(O)(c3ccc(F)cc3)C3CCN(C(C)=O)CC3)cc2c(Cl)c1Cc1ccc(F)cc1` (single isomer, unassigned) [Example 51b, 1-(4-((4-Chloro-3-(4-fluorobenzyl)-2-methoxyquinolin-6-yl)(4-fluorophenyl)(hydroxy)methyl)piperidin-1-yl)ethanone], for which, in assay [1], the Kd amounted to 3.9 nM. The “RORγt … % inhibition @ 6 µM” value in assay [2] was determined as 46%. The IC50 in assay [2] (setting [3]) was determined as 170 nM.

As to `COc1nc2ccc(C(O)(c3ccccc3)C3CCN(C(C)=O)CC3)cc2c(Cl)c1Cc1ccc(-n2ccnc2)cc1` (stereo not drawn) [Example 16c], in assay [1], the Kd is 4.6 nM. For the same molecule, in assay [2], the “RORγt … % inhibition @ 6 µM” value worked out at 100%. In assay [2] (setting [3]), this molecule gave an IC50 of 20 nM.

Take `Cn1cncc1C(O)(c1ccc(C(F)(F)F)nc1)c1ccc2nc(N3CCOCC3)c(Cc3ccc(-n4cccn4)cc3)c(Cl)c2c1` (single isomer, unassigned) [Example 146c, {4-Chloro-2-morpholin-4-yl-3-[4-(1H-pyrazol-1-yl)benzyl]quinolin-6-yl}(1-methyl-1H-imidazol-5-yl)[6-(trifluoromethyl)pyridin-3-yl]methanol]: the dissociation constant (Kd) in assay [1] came out at 600 nM. In addition, in assay [2] (HEK293T cells), the “RORγt … % inhibition @ 6 µM” value is reported as 92% and the IC50 is around 2000 nM.

As for `Cn1cc(-c2nc3ccc(C(O)(c4ccc(C(F)(F)F)nc4)c4cncn4C)cc3c(Cl)c2Cc2ccccc2)cn1` (single isomer, unassigned) [Example 111c, (3-Benzyl-4-chloro-2-(1-methyl-1H-pyrazol-4-yl)quinolin-6-yl)(1-methyl-1H-imidazol-5-yl)(6-(trifluoromethyl)pyridin-3-yl)methanol], the Kd in assay [1] worked out at 22000 nM. In addition, the “RORγt … % inhibition @ 6 µM” value in assay [2] is recorded as 92%. In assay [2] (setting [3]), this molecule came in with an IC50 of around 5000 nM.

Consider `COc1nc2ccc(C(N)(c3ccc(C(F)(F)F)nc3)c3cncn3C)cc2c(Cl)c1Cc1cc2ccccc2s1` (single isomer, unassigned) [Example 71c, (3-(Benzo[b]thiophen-2-ylmethyl)-4-chloro-2-methoxyquinolin-6-yl)(1-methyl-1H-imidazol-5-yl)(6-(trifluoromethyl)pyridin-3-yl)methanamine], for which, in assay [1], the dissociation constant Kd came out at 270 nM. For the same molecule, in assay [2], the “RORγt … % inhibition @ 6 µM” value came out at 94%. Moreover, the IC50 in assay [2] (setting [3]) was 830 nM.

Turning to `COc1nc2ccc(C(O)(c3cncn3C)c3cncn3C)cc2c(Cl)c1Cc1ccc(C(F)(F)F)cc1` [Example 149, (4-Chloro-2-methoxy-3-(4-(trifluoromethyl)benzyl)quinolin-6-yl)bis(1-methyl-1H-imidazol-5-yl)methanol], in assay [1], the Kd was determined as 0.34 nM. Also, in assay [2] (HEK293T cells), it took 2.4 nM to reach half-maximal inhibition (IC50) and the inhibition at 6 µM is 96%.

For the molecule `COc1c(Cc2ccccc2)c(C(F)(F)F)nc2ccc(C(O)(c3ccccn3)c3cncn3C)cc12` (single isomer, unassigned) [Example 98c, (3-Benzyl-4-methoxy-2-(trifluoromethyl)quinolin-6-yl)(1-methyl-1H-imidazol-5-yl)(pyridin-2-yl)methanol], in assay [1], the Kd came to 380 nM. Moreover, the “RORγt … % inhibition @ 6 µM” value in assay [2] is on record as 96%. The IC50 in assay [2] (setting [3]) came out at 420 nM.

With `COc1nc2ccc(C(O)(c3ccc(F)cc3)C3CCN(C(C)=O)CC3)cc2c(Cl)c1Cc1ccc(-n2cccn2)cc1` (stereo not drawn) [Example 157a, 1-(4-((3-(4-(1H-Pyrazol-1-yl)benzyl)4-chloro-2-methoxyquinolin-6-yl)(4-fluorophenyl)(hydroxy)methyl)piperidin-1-yl)ethanone], in assay [1], the dissociation constant Kd amounted to 3.9 nM. Further, in assay [2] (HEK293T cells), the IC50 was around 7 nM and the inhibition at 6 µM turned out to be 93%.

Regarding `Cc1ccc(C(O)(c2ccc3nc(N4CCC4)c(Cc4ccc(C(F)(F)F)cc4)c(Cl)c3c2)c2cnnn2C)c(C)n1` (stereo not drawn) [Example 140a, {2-Azetidin-1-yl-4-chloro-3-[4-(trifluoromethyl)benzyl]quinolin-6-yl}(2,6-dimethylpyridin-3-yl)(1-methyl-1H-1,2,3-triazol-5-yl)methanol], the Kd in assay [1] turned out to be 0.19 nM. Also, in assay [2] (HEK293T cells), the midpoint of inhibition, the IC50, lay at 22 nM and the inhibition at 6 µM is 99%.

For the molecule `COc1nc2ccc(C(O)(c3cnnn3C)C3CCN(C(C)=O)CC3)cc2c(Cl)c1Cc1ccc(C(F)(F)F)cc1` (single isomer, unassigned) [Example 74c, 1-(4-((4-Chloro-2-methoxy-3-(4-(trifluoromethyl)benzyl)quinolin-6-yl)(hydroxy)(1-methyl-1H-1,2,3-triazol-5-yl)methyl)piperidin-1-yl)ethanone], the Kd in assay [1] amounted to 7.7 nM. In addition, the “RORγt … % inhibition @ 6 µM” value in assay [2] came out at 101%. In assay [2] (setting [3]), half-maximal inhibition (IC50) was put at 20 nM.

As for `COc1nc2ccc(C(O)(c3ccc(C)nc3C)c3cnnn3C)cc2c(Cl)c1Cc1ccc(S(C)(=O)=O)cc1` (single isomer, unassigned) [Example 117b, (4-Chloro-2-methoxy-3-(4-(methylsulfonyl)benzyl)quinolin-6-yl)(2,6-dimethylpyridin-3-yl)(1-methyl-1H-1,2,3-triazol-5-yl)methanol], the Kd in assay [1] was determined as 1300 nM. In addition, in assay [2] (HEK293T cells), the IC50 was around 4000 nM and the inhibition at 6 µM was determined as 88%.

For the molecule `COc1nc2ccc(C(O)(c3ccc(F)cc3)c3cccnc3)cc2c(Cl)c1Cc1ccc(-n2cccn2)cc1` (stereo not drawn) [Example 158a, (3-(4-(1H-Pyrazol-1-yl)benzyl)-4-chloro-2-methoxyquinolin-6-yl)(4-fluorophenyl)(pyridin-3-yl)methanol], in assay [1], the Kd worked out at 21 nM. In assay [2] (HEK293T cells), the IC50 was found to be 57 nM and the inhibition at 6 µM is 97%.
